Consider four compounds from patent US20100144755A1 (Glaxo Group Limited, priority 2006, published 2010).

Experiment [1] deals with LPS-stimulated TNFalpha production in human whole blood. Nature of the experiment: LPS-stimulated cytokine production in human whole blood. Format: cell-based. The conditions noted are these: LPS 50 ng/ml final, 4 hour incubation, read-out: IC50, LPS-stimulated TNF-alpha production in human whole blood.
Description: LPS-Stimulated Cytokine Production in Human Whole Blood
Assay: Test compound concentrations were prepared at 10× concentrations and LPS prepared at 1 ug/ml (final conc. of 50 ng/ml LPS) and added in 50 uL volumes to 1.5 mL eppendorf tubes. Heparinized human whole blood was obtained from healthy volunteers and was dispensed into eppendorf tubes or multiwell plates containing compounds and LPS in 0.2-0.4 mL volumes and the tubes incubated at 37 C. In some studies, compound was incubated with blood for up to 30 min prior to addition of LPS. Following a 4 hour incubation, the tubes or plates were centrifuged to remove cells and plasma was withdrawn and frozen at −80 C.
Cytokine measurement: IL-Ibeta and/or TNFalpha were quantified using a standardized ELISA, or similar technology.
A further experiment deals with T1, Recombinant human p38α (Homo sapiens, UniProt Q16539).
T1 construct: His; made in house
Nature of the experiment: Time-resolved fluorescence resonance energy transfer (TR-FRET) kinase assay (standard and low volume). Format: biochemical. Here is the method:
Time-Resolved Fluorescence Resonance Energy Transfer Linase Standard Assay
Recombinant human p38α was expressed as a His-tagged protein. To activate this protein, 3 μM unactivated p38α was incubated in 200 mM Hepes pH 7.4, 625 mM NaCl, 1 mM DTT with 27 nM active MKK6 (Upstate), 1 mM ATP and 10 mM MgCl2 The activity of the MKK6-activated p38α was assessed using a time-resolved fluorescence resonance energy transfer (TR-FRET) assay.
Biotinylated-GST-ATF2 (residues 19-96, 400 nM final), ATP ([…]) and MgCl2 (5 mM final) in assay buffer (40 mM HEPES pH 7.4, 1 mM DTT) were added to wells containing 1 ul of various concentrations of compound or DMSO vehicle (3% final) in NUNC 384 well black plate. The reaction was initiated by the addition of MKK6-activated p38 (100 pM final) to give a total volume of 30 ul. The reaction was incubated for 120 minutes at room temperature, then terminated by the addition of 15 μl of 100 mM EDTA pH 7.4. Detection reagent (15 μl) in buffer (100 mM HEPES pH 7.4, 150 mM NaCl, 0.1% w/v BSA, 1 mM DTT) containing antiphosphothreonine-ATF2-71 polyclonal antibody (Cell Signalling Technology, Beverly Mass., USA) labelled with W-1024 europium chelate (Wallac O Y, Turku, Finland), and APC-labelled streptavidin (Prozyme, San Leandro, Calif., USA) was added and the reaction was further incubated for 60 minutes at room temperature. The degree of phosphorylation of GST-ATF2 was measured using a Packard Discovery plate reader (Perkin-Elmer Life Sciences, Pangbourne, UK) as a ratio of specific 665 nm energy transfer signal to reference europium 620 nm signal.
Time-Resolved Fluorescence Resonance Energy Transfer Kinase Low Volume Assay
Recombinant human p38α was expressed as a His-tagged protein. To activate this protein, 3 μM unactivated p38α was incubated in 200 mM Hepes pH7.4, 625 mM NaCl, 1 mM DTT with 27 nM active MKK6 (Upstate), 1 mM ATP and 10 mM MgCl2 The activity of the MKK6-activated p38α was assessed using a time-resolved fluorescence resonance energy transfer (TR-FRET) assay.
Biotinylated-GST-ATF2 (residues 19-96, 400 nM final), ATP (125 μM final) and MgCl2 (5 mM final) in assay buffer (40 mM HEPES pH 7.4, 1 mM DTT) were added to wells containing 0.1 μl of various concentrations of compound or DMSO vehicle (1.7% final) in Greiner low volume 384 well black plate. The reaction was initiated by the addition of MKK6-activated p38α (100 pM final) to give a total volume of 6 μl. […] The degree of phosphorylation of GST-ATF2 was measured using a BMG Rubystar plate reader (BMG, UK) as a ratio of specific 665 nm energy transfer signal to reference europium 620 nm signal.
It is noted that there are two assay formats shown above for the Time-resolved fluorescence resonance energy transfer kinase assay. […]
In general terms: In TR-FRET formats the signal depends on donor and acceptor labels being close together.

Experiment [2] has as its system TNF-stimulated IL8 production by human neutrophils. The experiment is described as follows: TNF-stimulated IL-8 production from human neutrophils.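 Also: IL-8 in cell-free supernatant quantified by sandwich ELISA, inhibition calculated against a compound-free control.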 The class given is cell-based. The conditions noted are these: Neutrophil, TNF 100 ng/ml, about 20 hrs, bounds reflect the top concentration screened, for 202(c) and 120 a range over multiple runs with ends given as 'greater than'.
Description: TNF-Stimulated IL-8 Production from Human Neutrophils
The effect of test compounds on TNF-stimulated IL8 production by human neutrophils is measured as follows. Neutrophils are prepared from blood obtained from consenting donors, using standard methods. Blood is collected in heparinized syringes and layered over histopaque (30 ml/20 ml). Following centrifugation, the red cell pellet is resuspended in PBS and purified over a dextran gradient. […] Cells are added (0.5-1 ml) to 48 well plates already containing compound at 1000× final concentration in neat DMSO or 10% DMSO in RPMI1640 with 10% FBS. TNF (final concentration 100 ng/ml) is used as the stimulus. Cells incubated for approximately 20 hrs at 37° C., 5% CO2. Levels of IL-8 in the cell free supernatant are determined by sandwich ELISA, and inhibition relative to a control with DMPO but no compound is calculated.

[3] abbreviates: for 97(b) and 115 a broad range over multiple runs, lower end less than 4.6, read-out: pIC50, TR-FRET p38α kinase assay (converted).

The structures appear in SMILES notation. Counter-ions that a name gives are not always drawn. Like-named read-outs stand apart in the source and are kept apart here. A value given as a limit tells only on which side of the number the result lay.

T1 sequence (Q16539 whole entry): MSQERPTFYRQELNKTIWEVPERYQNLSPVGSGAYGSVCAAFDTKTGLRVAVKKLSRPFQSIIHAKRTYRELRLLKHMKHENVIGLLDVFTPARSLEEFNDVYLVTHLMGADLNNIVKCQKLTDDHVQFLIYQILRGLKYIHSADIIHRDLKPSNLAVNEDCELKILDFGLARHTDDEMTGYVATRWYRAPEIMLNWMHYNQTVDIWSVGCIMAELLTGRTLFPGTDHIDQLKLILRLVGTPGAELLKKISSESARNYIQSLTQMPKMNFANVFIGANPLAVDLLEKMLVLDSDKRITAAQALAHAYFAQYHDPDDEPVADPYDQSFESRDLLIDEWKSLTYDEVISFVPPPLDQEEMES

As for `Cc1ccc(C(=O)NCCc2ccccc2)cc1-c1nc(NC(CO)CO)nc2c1ccc(=O)n2-c1c(F)cccc1F` [Example 93, 3-(8-(2,6-difluorophenyl)-2-{[2-hydroxy-1-(hydroxymethyl)ethyl]amino}-7-oxo-7,8-dihydropyrido[2,3-d]pyrimidin-4-yl)-4-methyl-N-(2-phenylethyl)benzamide trifluoroacetate], in experiment [1], the IC50 was above 1 µM.
As to `Cc1ccc(C(=O)O)cc1-c1nc(-n2ccnc2CN)nc2c1ccc(=O)n2-c1c(F)cccc1F` [Example 97(b), 3-[2-[2-(aminomethyl)-1H-imidazol-1-yl]-8-(2,6-difluorophenyl)-7-oxo-7,8-dihydropyrido[2,3-d]pyrimidin-4-yl]-4-methylbenzoic acid trifluoroacetate], the IC50 in experiment [1] was above 1 µM; at Recombinant human p38α (setting [3]) it was at least 0.0398 µM.
Regarding `Cc1ccc(C(=O)NC(C)C)cc1-c1nc(N(C)CCN(C)C)nc2c1ccc(=O)n2-c1c(F)cccc1F` [Example 100, 3-{8-(2,6-difluorophenyl)-2-[[2-(dimethylamino)ethyl](methyl)amino]-7-oxo-7,8-dihydropyrido[2,3-d]pyrimidin-4-yl}-4-methyl-N-(1-methylethyl)benzamide], the IC50 in experiment [1] was above 1 µM.
As for `CCN(CC)CCCNc1nc(-c2ccc(C(=O)O)cc2)c2ccc(=O)n(-c3c(F)cccc3F)c2n1` [Example 188(a), 4-[2-{[3-(diethylamino)propyl]-amino}-8-(2,6-difluorophenyl)-7-oxo-7,8-dihydropyrido[2,3-d]pyrimidin-4-yl]benzoic acid], the IC50 in experiment [2] was above 0.1 µM; at Recombinant human p38α (setting [3]) it was above 15.8 µM; on Recombinant human p38α (no IC50 at a concentration of less than 16 uM, read-out: IC50, TR-FRET p38α kinase assay) it was at least 16 µM.
